For experiment [1], the system named is YB5 cells. Briefly: GFP reactivation in YB5 cells (flow cytometry). The conditions noted are these: for Emax at 1 µM / Emax at 5 µM / Emax at 10 µM / Emax at 25 µM: Homo sapiens, 24 h; for Emax at 1 µM: read-out: relative activity to Depsipeptide @ 1 μM %; for Emax at 5 µM: read-out: relative activity to Depsipeptide @ 5 μM %; for Emax at 10 µM: read-out: relative activity to Depsipeptide @ 10 μM %; for Emax at 25 µM: read-out: relative activity to Depsipeptide @ 25 μM %. The class given is cell-based, human. An excerpt: To screen the compounds of the invention for epigenetic anti-cancer activity the YB5 cell-based system, which is derived from the human colon cancer cell line SW48, was used (Si et al., 2010, Cancer Res. 70:6968-6977; Raynal et al., 2012, Cancer Res. 72:1170-1181). YB5 cells contain a single insertion of cytomegalovirus (CMV) promoter driving green fluorescent protein (GFP) gene. GFP expression is silenced in >99.9% of YB5 cells by epigenetic mechanisms. In YB5 cells, the inserted GFP gene behaves similarly to endogenous tumor suppressor genes (TSGs) silenced by epigenetic mechanisms, and it can be reactivated by epigenetic anti-cancer agents such as DNA methylation inhibitors and/or HDAC inhibitors such as depsipeptide (Si et al., 2010, Cancer Res. 70:6968-6977; Raynal et al., 2012, Cancer Research, 72:1170-1181; Wu et al., 2008, Mol. Cell Biol, 28:3219-3235). Thus, reactivation of GFP expression and the resulting fluorescence is a measure of epigenetic anti-cancer activity.
The following procedure may be used to identify compounds of useful in the invention. YB5 cells cultured in L-15 medium supplemented with 10% fetal bovine serum and 1% P/S are treated for 24 hours with varying concentrations (50 nM, 100 nM, 500 nM, 1 μM, 5 μM, 10 μM, 25 μM, and 50 μM) of test compounds. After treatment, cells are trypsinized and re-suspended in cell culture media with propidium iodide (PI) to stain dead cells. Reactivation of GFP is measured using flow cytometry to identify the GFP positive population. The relative activities are expressed as the percent of the response compared to treatment with 20 nM HDACi depsipeptide for 24 hours. YB5 cells are grown in 1% CO2 atmosphere at 37° C.
NDL-3040 compound library consists of 3040 chemically diverse compounds that are semi-natural, derived from natural compounds, or synthetic compounds that are natural-compound-like. The small molecules were arrayed in 96-well plates as 10 mM stocks in 100% DMSO and were purchased from TimTec Inc. An aminothiazole analog library (93 small molecules) was also purchased from the same vendor and was in a 96-well plate format as 10 mM stocks in 100% DMSO. The 3040 compounds were screened at 25 μM for 24 hr. All plates were kept at −80° C. before use. YB5 cells growing in log phase (70-80% confluency) in 96-well plates were used. Each experimental 96-well plate contained 80 different compounds. Compounds were dispensed using an INTEGRA VIAFLO96 96-well pipette. After a 24 hr drug treatment, cells were trypsinized for 10 mins and re-suspended in L-15 medium containing propidium iodide (PI) to stain for dead cells. A total of 10000 cells per well were analyzed using Millipore Guava flow cytometer (EMD, Millipore). GFP positive percentage was calculated by excluding all the PI positive cells. After finishing the screening, the average Z-factor
For drug screening and dose response validations, GFP positive cells were detected by Millipore Guava flow cytometer (EMD, Millipore). Cell cycle analysis was performed using BD FACSCalibur™ by propidium iodide staining four days after drug treatment. Sub-G1 population percentage was also included to measure apoptotic cell proportion. Data were analyzed using FlowJo software version 10.2. For the cell differentiation analysis, cells were washed and stained with propidium iodide (PI), CD11 b (BD Biosciences, #562793) and the isotype control IgG (BD Biosciences, #555748). Flow cytometry analysis was performed on a Millipore Guava flow cytometer (EMD, Millipore). For the ID8 in vivo experiments, ascites was drained from 5-10 mice per group and incubated in ACK buffer (Thermo Fisher) to lyse red blood cells for 10 minutes, then washed. Ascites from each mouse was individually lysed and prepared for flow cytometry. Mononuclear cells collected were cultured for 4 hours in RPMI with 5% Fetal Bovine Serum and in the presence of Cell Stimulation Cocktail (plus protein transport inhibitors; eBioscience). […]

For experiment [2], the system named is ID8. Briefly: ID8 ovarian cancer syngeneic immunocompetent mouse model. The class given is in vivo. The procedure: For drug screening and dose response validations, GFP positive cells were detected by Millipore Guava flow cytometer (EMD, Millipore). Cell cycle analysis was performed using BD FACSCalibur™ by propidium iodide staining four days after drug treatment. Sub-G1 population percentage was also included to measure apoptotic cell proportion. Data were analyzed using FlowJo software version 10.2. For the cell differentiation analysis, cells were washed and stained with propidium iodide (PI), CD11 b (BD Biosciences, #562793) and the isotype control IgG (BD Biosciences, #555748). Flow cytometry analysis was performed on a Millipore Guava flow cytometer (EMD, Millipore). For the ID8 in vivo experiments, ascites was drained from 5-10 mice per group and incubated in ACK buffer (Thermo Fisher) to lyse red blood cells for 10 minutes, then washed. Ascites from each mouse was individually lysed and prepared for flow cytometry. Mononuclear cells collected were cultured for 4 hours in RPMI with 5% Fetal Bovine Serum and in the presence of Cell Stimulation Cocktail (plus protein transport inhibitors; eBioscience). Cells were then washed and stained for cell surface markers including Live/Dead (eBioscience #65-0865-18), CD45 (BD Biosciences, #563891), CD3 (BD Biosciences, #560527), MHC II (Biolegend #107619, Isotype Control #400627), CD80 (BD Biosciences, #553769), CD86 (BD Biosciences, #558703) and CD11c (BD Biosciences, #564079). Flow cytometry acquisition was performed on an LSRII cytometer (BD Biosciences) and data were analyzed using FlowJo software version 10.2.
2.5×10^5 ID8-VEGF-Defensin cells were injected i.p. into 7-8-week-old female C57BL/6NHsd (C57Bl/6) mice. Three days after injection, 1 mg/kg SNS-032, 10 mg/kg SNS-032, or 5% DMSO in PBS (vehicle control) was administered i.p. every 3 days for the duration of the experiment. α-PD-1 (200 ug/mouse) or IgG control were given on days 17, 20, 24, and 27 after injection. α-PD-1 (1 mg/mL in saline) was utilized. Mouse IgG isotype control was purchased from Leinco Technologies and diluted in PBS.

The test system of experiment [3] is YB5 cells. Briefly: GFP reactivation in YB5 cells (flow cytometry). Type of experiment: cell-based, human. The conditions noted are these: for GFP reactivation activity: multiple doses, four-day drug treatment in YB5.
For experiment [4], the system named is YB5 cells. Briefly: qPCR gene expression in YB5 cells. Type of experiment: cell-based, human. The settings on record: 24 hr treatment. The procedure: Total RNA was extracted using TRIzol reagent (Invitrogen) following the manufacturer's protocol and RNA concentrations were measured using Nanodrop. cDNAs were synthesized using High Capacity cDNA Reverse Transcription Kit (ThermoFisher) and qPCR was performed using either ready-made TaqMan® assays or SYBR-green using custom-designed primers. All the data were analyzed using Applied Biosystems software (StepOne™ Software V2.3). For all experiments, relative expression levels of the target genes were determined by calculating the 2^−ΔΔCt values. All experiments were performed at least in triplicates. Either GAPDH or 18S rRNA was used as an internal normalization control for protein coding genes. RPLPO was used as an internal normalization control for ERVs. All SYBR-green primers were described previously and are listed in Table 1 along with TaqMan® probes used.

Experiment [5] concerns YB5 cells. In words: RNA-seq in YB5 cells. The class given is cell-based, human. The settings on record: after excluding early response genes. The procedure: RNA from experiments in biological triplicates was isolated using RNeasy Mini Plus Kit (QIAGEN) following the manufacturer's instructions. Strand-specific RNA libraries were generated from 1 μg of RNA using TruSeq stranded total RNA with Ribo-Zero Gold (Illumina). Sequencing was performed using single end reads (50 bp, average 50 million reads per sample) on the HiSeq2500 platform (Illumina) at Fox Chase Cancer Center Genomic Facility. Sequenced reads were aligned to the hg19 genome assembly using TopHat2 (Kim, D., Pertea, G., Trapnell, C., Pimentel, H., Kelley, R., and Salzberg, S. L. (2013). Genome Biol 14, R36). The expression level and fold change of each treatment group was evaluated using EdgeR (Robinson, M. D., McCarthy, D. J., and Smyth, G. K. (2010), Bioinformatics 26, 139-140). Genes that had 0 reads across all samples were excluded. In order to get rid of batch effects, samples were normalized using RUVr method from the RUVseq package (Risso, D., Ngai, J., Speed, T. P., and Dudoit, S. (2014). Normalization of RNA-seq data using factor analysis of control genes or samples. Nat Biotechnol 32, 896-902). RNA data were deposited in the GEO database with the accession number GSE104837.

For `Nc1nc(N[C@H]2CC3CCC2C3)sc1C(=O)c1ccc2nonc2c1` (stereo partly shown) [MC180345], in experiment [1], the “relative activity to Depsipeptide @ 500 nM %” value is on record as 1.87%, the Emax at 1 µM stood at 3.58%, the Emax at 5 µM came out at 3.61% and the Emax at 10 µM came out at 3.99%. For the same molecule, in experiment [1], the Emax at 25 µM stood at 12.6%.
Turning to `CC(C)(C)c1cnc(CSc2cnc(NC(=O)C3CCNCC3)s2)o1` [SNS-032], in experiment [2] (10 mg/kg), the survival entry is on record as “extend the survival of the mice significantly” and the tumor burden entry was “reduce tumor burden”. The “immune cells (CD45+) and T cells (CD3+) in the tumor microenvironment” value in experiment [2] (in vivo treatment, ascites fluid, flow cytometry) was “increased populations”.
As to `COc1cc(C(=O)c2sc(N[C@H]3CC4CCC3C4)nc2N)cc(OC)c1OC` (stereo partly drawn) [MC180251, (4-amino-2-(((2S)-bicyclo[2.2.1]heptan-2-yl)amino)thiazol-5-yl)(3,4,5-trimethoxyphenyl)methanone], in experiment [1], the “relative activity to Depsipeptide @ 50 μM %” value is 0.00%, the Emax at 1 µM was determined as 0%, the Emax at 5 µM was 0% and the Emax at 10 µM is 0%. In experiment [1], the Emax at 25 µM was 0%.
Regarding `Cc1c[nH]c(-c2cnc(NCCNc3ccc(C#N)cn3)nc2-c2ccc(Cl)cc2Cl)n1` [CHR99021], in experiment [3], the GFP reactivation activity entry was “no GFP reactivation activity”.
Consider `O=C(/C=C/N1C[C@H]2C[C@@H]1CN2c1ccccn1)c1ccccc1O` [PFI-3], for which the “effect on GFP activation by HH1 or iCDK9” value in experiment [3] (72 hr daily pre-treatment followed by 24 hr co-treatment) is given as “inhibited GFP activation”.
For `NC1CCC(Nc2cc(-c3cccc(NCc4cccc(F)c4)n3)c(Cl)cn2)CC1` (stereo not shown) [iCDK9], the “expression of SYNE1 and MGMT” value in experiment [4] was “gene reactivation”.
As to `N#Cc1ccccc1C(=O)c1sc(N[C@H]2CC3CCC2C3)nc1N` (stereo partly drawn) [MC180342, 2-(4-amino-2-(((2S)-bicyclo[2.2.1]heptan-2-yl)amino)thiazole-5-carbonyl)benzonitrile], in experiment [1], the “relative activity to Depsipeptide @ 500 nM %” value is listed as 10.42%, the Emax at 1 µM stood at 22.7%, the Emax at 5 µM is 107% and the Emax at 25 µM is 78.8%.
Take `Nc1ncn([C@H]2C[C@H](O)[C@@H](CO)O2)c(=O)n1` [DAC, decitabine]: in experiment [5], the “low expressed genes (RPKM<0.31) down” value worked out at 7 and the “low expressed genes (RPKM<0.31) up” value is on record as 1238.
`Nc1nc(N[C@H]2CC3CCC2C3)sc1C(=O)c1cccc([N+](=O)[O-])c1` (stereo partly shown) [MC180339]: in experiment [1], the “relative activity to Depsipeptide @ 500 nM %” value was found to be 3.29%, the Emax at 1 µM stood at 3.05%, the Emax at 5 µM came out at 16.9% and the Emax at 10 µM is 29.2%. For the same molecule, the Emax at 25 µM in experiment [1] was 8.71%.
For `[Cl-].[Li+]` [LiCl], in experiment [3], the GFP reactivation activity result was “no GFP reactivation activity”.
For `Nc1nc(N[C@H]2CC3CCC2C3)sc1C(=O)c1cccc2nonc12` (stereo partly drawn) [MC180349, (4-amino-2-(((2S)-bicyclo[2.2.1]heptan-2-yl)amino)thiazol-5-yl)(benzo[c][1,2,5]oxadiazol-4-yl)methanone], in experiment [1], the “relative activity to Depsipeptide @ 500 nM %” value is 10.98%, the Emax at 1 µM amounted to 27.5%, the Emax at 5 µM was determined as 91.2% and the Emax at 10 µM turned out to be 74.5%. Also, the Emax at 25 µM in experiment [1] came to 36.6%.
As for `Nc1nc(N[C@H]2CC3CCC2C3)sc1C(=O)c1cc2c(cc1[N+](=O)[O-])OCCO2` (stereo partly shown) [MC180312], in experiment [1], the “relative activity to Depsipeptide @ 50 μM %” value worked out at 6.38%, the Emax at 1 µM worked out at 9.73%, the Emax at 5 µM is 35.6% and the Emax at 10 µM is 42.3%. For the same molecule, the Emax at 25 µM in experiment [1] was 9%.
For `Nc1nc(N[C@H]2C[C@@H]3CC[C@H]2C3)sc1C(=O)c1cc2c(cc1[N+](=O)[O-])OCO2` [MC180300], in experiment [1], the “relative activity to Depsipeptide @ 500 nM %” value amounted to 0.68%, the Emax at 1 µM came out at 3.87%, the Emax at 5 µM came out at 35.6% and the Emax at 10 µM came out at 51.6%. The Emax at 25 µM in experiment [1] is 46.9%.
Taken in the same sequence, the figures for `Nc1nc(N[C@H]2CC3CCC2C3)sc1C(=O)c1ccc([N+](=O)[O-])cc1` (stereo partly shown) [MC180340] were 3.54%, 2.83%, 13%, 11.6% and 3.41%.
Take `CN1CC[C@H](c2c(O)cc(O)c3c(=O)cc(-c4ccccc4Cl)oc23)[C@H](O)C1` [flavopiridol]: the “expression of SYNE1 and MGMT” value in experiment [4] is listed as “gene reactivation”.

(Values after patent publication US10941126B2, “Bridged bicycloalkyl-substituted aminothiazoles and their methods of use” (Temple University—Of The Commonwealth System of Higher …, priority 2017, dated 2021).)
